Laboratory results taken from patent US20050118601A1, “Enhancer sequence of the 5-aminolevulinic acid synthase gene” (priority 2002, published 2005).
Like-named read-outs stand apart in the source and are kept apart here.

Assays:
mCAR = molecular target: T1, mCAR (Mus musculus, UniProt O35627); assay: Transactivation assays of human ALAS1 fragments with mCAR in CV-1 and HepG2 cells; format: cell-based
T1 construct: expressed in transfected cells; host or cells: monkey kidney CV-1 cells and human hepatoma HepG2 cells
T1 sequence (O35627 1-358): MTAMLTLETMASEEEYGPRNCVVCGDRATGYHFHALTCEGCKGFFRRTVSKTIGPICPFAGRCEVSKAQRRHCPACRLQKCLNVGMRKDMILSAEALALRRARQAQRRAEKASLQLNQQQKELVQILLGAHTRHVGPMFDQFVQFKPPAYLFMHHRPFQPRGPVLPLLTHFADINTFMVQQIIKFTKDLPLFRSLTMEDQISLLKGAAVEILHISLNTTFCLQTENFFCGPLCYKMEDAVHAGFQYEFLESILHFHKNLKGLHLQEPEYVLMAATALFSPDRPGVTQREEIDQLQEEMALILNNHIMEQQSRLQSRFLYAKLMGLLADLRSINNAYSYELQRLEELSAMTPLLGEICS
Description: In transactivation assays in a heterologous cell line (monkey kidney CV-1 cells) and human hepatoma HepG2 cells, we assessed which nuclear receptor conveys the observed activation. The two candidate receptors pregnane X receptor (PXR) and constitutive androstane receptor (CAR) were tested on these fragments.

ALAS1 mRNA = ALAS1 mRNA quantification (Taqman real-time PCR) in LMH cells; format: cell-based, chicken
Description: We next wanted to compare ADRES-mediated ALAS1 induction levels from reporter gene assays with stimulation of transcription in a physiological system. […] In addition, the common CYP3A inducers dexamethasone (50 μM), metyrapone (400 μM), and 10 μM mifepristone (RU-486) were employed for comparison. We were also interested in the effects of […] 5-pregnen-3β-ol-20-one-16α-carbonitrile (PCN) and rifampicin (100 μM) due to their species-specific effects on PXR activation and CYP3A induction. Messenger RNA was reverse transcribed and levels of ALAS1 cDNA were quantified using the Taqman real-time PCR quantification system as described in Materials and Methods. […] This value was chosen to represent 100% induction, against which all other values are compared.
LMH cells were plated onto 12-well plates, expanded to 70-80% surface density and incubated in serum-free media for 24 h. Cells were then exposed to either drug or vehicle and RNA was isolated with Trizol reagent (Gibco BRL) according to the manufacturer protocol. One μg of total RNA was reverse transcribed with the Moloney murine leukemia virus reverse transcriptase kit (Roche Molecular Biochemicals). PCR was performed using the Taqman PCR core reagent kit (PE Applied Biosystems) and transcript levels quantitated with an ABI Prism 7700 sequence detection system (PE Applied Biosystems). Relative transcript levels were determined using the relative quantitation method measuring the ΔΔCt. The following primers and probes were used in these reactions. […] Transcript levels were measured in separate tubes and GAPDH values were used for normalization of ALAS1 values.

[1] = tested on: human ALAS1 gene fragments (hA795, hA174, hA8, hA240); assay: Luciferase reporter gene assay of human ALAS1 fragments in LMH cells; format: cell-based; conditions: 24 h, 400 μM PB or 250 μM PIA
Description: Fragments were cloned into the pGL3 luciferase reporter vector (Promega Corp) and tested for inducibility by the prototypical HALAS1 inducers phenobarbital (PB) and propylisopropylacetamid (PIA). Four hours after transfection of LMH cells with the constructs, cells were exposed to the drugs for 24 hours, after which luciferase activity was assayed. Results were normalized for transfection efficiency by assaying for activity of co-transfected β-galactosidase. Data shown is one representative experiment (FIG. 11).
We investigated in more detail the contribution of various response element half-sites to drug-induction mediated by this element. Within the hA174 element, an arrangement of three nuclear receptor response element half-sites was found, which lead: to the prediction of a DR-4 type, as well as a DR-5 type response element (of. FIG. 18A). By site-directed mutagenesis, we examined the involvement of each of these half-sites to drug induction. In the context of the 2xhA174 reporter construct, each single half-site was mutated in both copies of the hA174 element. The wild-type and mutant constructs were subsequently tested for reporter gene activation in LMH cells as described above. Cells were induced with 400 μM phenobarbital (PB) or 250 μM propylisopropylacetamid (PIA). As a control, vehicle alone (0.1% DMSO) was added to the cells. After 24 hours, luciferase activity was assayed and normalized against co-transfected β-galactosidase activity in order to compensate for transfection efficiency. […] From this, we conclude that the DR-4 element, consisting of the HS1 and HS2 half-sites, is essential for drug induction. The change in induction observed by mutagenesis of the HS3 half-site may indicate a modulatory role for the half-site alone or as a DR-5 in combination with HS2 in drug induction. Data shown are the mean+1SD of three independent experiments.
In order to define a core sequence retaining inducibility, the hA8 fragment (Seq. Id. No. 10), which carries PCR-introduced KpnI and XhoI restriction sites at its ends, was digested with SacI and NsiI. The resulting four fragments, a 100 bp KpnI/SacI fragment, a 374 bp SacI/NsiI fragment, a 240 bp NsiI/NsiI fragment, and a 231 bp NsiI/XhoI fragment, were cloned into a reporter gene vector and subsequently tested for drug induction in LMH cells. Of these fragments, only the 240 bp fragment (called hA240) (Seq. Id. No. 39) was able to convey transcriptional activation in response to drugs. Within the core hA240 fragment, we then mutated both half-sites of a predicted DR-4 element (cf. FIG. 18B) and observed the effect of this mutation on drug induction (240mutDR4). Alteration of the DR4 element half-sites abolished drug induction in LMH cell reporter gene assays. […]

[2] = tested on: chicken ALAS1 drug responsive enhancer sequence (ADRES) elements; assay: Luciferase reporter gene assay of chicken ALAS1 5'-flanking fragments / ADRES elements in transfected LMH cells; format: cell-based; conditions: for ADRES activation in reporter assays: PIA 250 μM, glutethimide 500 μM, metyrapone 400 μM, dexamethasone 50 μM, RU-486 10 μM, rifampicin 100 μM, TCPOBOP 10 μM, compared with PB 600 μM
Description: The constructs were transfected together with a transfection-control construct expressing β-galactosidase into LMH cells. Cells were then treated with 600 μM PB for 16 h and luciferase assays were performed on the cell extracts. Relative luciferase levels are standardized against cells transfected with vector containing no insert and expressed as fold induction. Experiments were repeated at least three times and data from a representative experiment tested in triplicate are shown here. Error bars represent standard deviations;
Three major subclones were generated from the region upstream of the transcriptional start site, including a 3282 bp SmaI fragment and 5056 bp and 7973 bp EcoRI segments (FIG. 1A). The SmaI clone extends from −167 bp to −3449 bp, whereas the EcoRI subfragments span the regions from −2347 bp to −7402 bp and −7403 bp to −15376 bp, respectively. These subfragments were cloned into the pLucMCS modified luciferase vector containing an SV40 promoter as described in Materials and Methods. Drug inducibility was measured in transiently transfected LMH cells treated with 600 μM PB and compared with control values. […]
The modified enhancers were examined for response to 600 μM PB in luciferase reporter gene assays and the results are presented in FIG. 3.
Leghorn Male Hepatoma (LMH) cells were obtained from the American Type Culture Collection and cultivated in 10 cm dishes in Williams E medium supplemented with 10% FCS, 1% glutamine (2 mM) and 1% penicillin/streptomycin (50 IU/ml). Dishes coated with 0.1% gelatin were used for routine culture of LMH cells in order to facilitate proper seating of the cells onto the plastic plate surface.

mouse CAR = molecular target: T2, mouse CAR (Mus musculus, UniProt O35627); assay: Transactivation of 369 bp ADRES by mouse CAR in CV-1 cells (CAT reporter); format: cell-based; conditions: TCPOBOP, 16 h
T2 construct: expressed in transfected cells; host or cells: CV-1 cells, pSG5 expression vector
T2 sequence (O35627 1-358): T1 sequence (O35627 1-358)
Description: To test the effects of the mutations on transcriptional activation, transactivations in CV-1 cells with mouse PXR and mouse CAR and their respective inducers PCN and TCPOBOP, were performed (FIG. 14). The inducible DNA constructs were subcloned into the CAT5 reporter vector and tested for their ability to be transactivated by nuclear receptor transcription factors in CV-1 cells. Mouse PXR (A) and mouse CAR (B) coding regions cloned into the pSG5 expression vector were cotransfected along with a vector expressing pSV β-galactosidase as control. Cells were then treated for 16 h with either drugs (A, PCN; B, TCPOBOP) or vehicle control and cell extracts were analyzed for CAT expression normalized against β-galactosidase levels. Experiments were repeated at least three times and error bars represent standard deviations.

mouse 369 bp DRES = assay: Luciferase reporter gene assay of mouse ALAS1 fragments / 369 bp DRES in LMH cells; format: cell-based; conditions: metyrapone 500 μM, glutethimide 500 μM, PIA 250 μM
Description: A 175 bp fragment (441 to 615) (Seq. Id. No. 3) was isolated by digesting the 2.6 kb fragment with SacI/XbaI. All fragments were subcloned in the pGL3LUCpro+MCS vector and the resulting constructs tested for inducibility in LMH reporter gene assay (FIG. 6). […] The 369 bp fragment was termed Drug responsive enhancer sequence DRES.
To compare the 369 bp DRES to other inducible fragments, a series of different drugs was used as inducers: clothrimazole (Clo, 10 μM), dexamethasone (Dex, 50 μM), glutethimide (GE, 500 μM), metyrapone (Met, 500 μM), phenobarbital (PB, 500 μM), PCN (10 μM), propylisopropylacetamide (PIA, 250 μM), rifampicin (Rif, 10 μM), RU486 (10 μM), TCPOBOP (10 μM).
Data shown is from two independent experiments.

SMILES: C[C@]12CC[C@@H](O)C[C@@H]1CC[C@@H]1[C@@H]2CC[C@]2(C)C=CC[C@@H]12 [3α-androstenol]
- mCAR induced activity remaining after repression (mCAR; human ALAS1 fragments hA795, hA8, hA174, inverse agonist): approximately 50%

SMILES: CCC1(c2ccccc2)C(=O)NC(=O)NC1=O.[Na] [PB, 5-ethyl-5-phenyl-barbituric acid sodium salt]
- ALAS1 RNA levels relative to basal transcript levels (ALAS1 mRNA): 16 fold
- effect on ALAS1 mRNA levels (ALAS1 mRNA): strong inducer
- inducibility of 2xhA174, HS1 or HS2 half-site mutated [1]: abolishment of inducibility
- induction of 2xhA174, HS3 half-site altered [1]: merely reduces induction levels
- PB response of 167 bp ADRES diminished by DR4-3 mutation ([2]; 600 μM PB, LMH cells): 75%
- activation of 167 bp ADRES, DR4-2 mutant ([2]; 600 μM PB, LMH cells): 5.4 fold
- activation of 176 bp ADRES, DR4-1 mutant ([2]; 600 μM PB, LMH cells): 16 fold
- activation of 176 bp ADRES, DR5 mutant ([2]; 600 μM PB, LMH cells): 6.4 fold
- activation of wild type 167 bp ADRES ([2]; 600 μM PB, LMH cells): 60 fold
- activation of wild type 176 bp ADRES ([2]; 600 μM PB, LMH cells): 44 fold
- induction of 167 bp ADRES, DR4-3 mutant ([2]; 600 μM PB, LMH cells): 15 fold
- limitation of 176 bp ADRES activation by DR4-1 mutation ([2]; 600 μM PB, LMH cells): over 60%
- reduction of 176 bp ADRES activity by DR5 mutation ([2]; 600 μM PB, LMH cells): over 85%
- reduction of PB response of 167 bp ADRES by DR4-2 alteration ([2]; 600 μM PB, LMH cells): over 90%
- induction over control values, 176 bp and 167 bp elements ([2]; LMH cells exposed to PB): 25-60 fold
- transcriptional activation in response to drug treatment, 5056 bp and 3282 bp subfragments ([2]; LMH cells, 600 μM PB): virtually no transcriptional activation
- increase in transcriptional activation relative to control values, 7973 bp subfragment ([2]; LMH cells, 600 μM PB, 16 h): 28 fold
- activation of the 167 bp element compared to the 176 bp element ([2]; PB 600 μM, LMH cells): twice the activation

SMILES: Clc1cnc(Oc2ccc(Oc3ncc(Cl)cc3Cl)cc2)c(Cl)c1 [TCPOBOP, 1,4-Bis[2-(3,5-dichloropyridyloxy)]benzene]
- reversal of 3α-androstenol repression of mCAR induced activity (mCAR; human ALAS1 fragments, direct agonist): reversible
- effect on ALAS1 mRNA levels (ALAS1 mRNA; LMH cells, 16 h, PB 600 μM, dexamethasone 50 μM, RU-486 10 μM, rifampicin 100 μM, TCPOBOP 10 μM): no response
- induction capacity, DR4-1,2/hs1,2 quadruple mutant (mouse CAR): completely eliminated
- induction exceeding basal levels, DR4-2/hs1 construct (mouse CAR): 1.4 fold
- induction, DR4-2/hs2 construct or DR4-2 double mutant (mouse CAR): no induction was observed
- response, DR4-1 single and double mutants (mouse CAR): did not exhibit any response
- ADRES activation in reporter assays ([2]; LMH cells, 16 h): no response

SMILES: CCCC(C(N)=O)C(C)C (stereo not drawn) [PIA, Propylisopropylacetamide]
- inducibility of 2xhA174, HS1 or HS2 half-site mutated [1]: abolishment of inducibility
- induction of 2xhA174, HS3 half-site altered [1]: merely reduces induction levels
- induction of the 369 bp DRES, ranking of drugs (mouse 369 bp DRES): strongest inducer
- ADRES activation in reporter assays ([2]; LMH cells, 16 h): in excess of levels obtained from PB treatment
